Data taken from patent US20130109718A1, “1-CYCLOALKYL- OR 1-HETEROCYCLYL-HYDROXYIMINO-3-PHENYL-PROPANES” (Hoffmann-La Roche Inc., priority 2011, published 2013).

Biological target: T1, human GPBAR1 receptor (Homo sapiens, UniProt Q8TDU6)
T1 construct: expressed in transfected cells
T1 sequence (Q8TDU6 1-330): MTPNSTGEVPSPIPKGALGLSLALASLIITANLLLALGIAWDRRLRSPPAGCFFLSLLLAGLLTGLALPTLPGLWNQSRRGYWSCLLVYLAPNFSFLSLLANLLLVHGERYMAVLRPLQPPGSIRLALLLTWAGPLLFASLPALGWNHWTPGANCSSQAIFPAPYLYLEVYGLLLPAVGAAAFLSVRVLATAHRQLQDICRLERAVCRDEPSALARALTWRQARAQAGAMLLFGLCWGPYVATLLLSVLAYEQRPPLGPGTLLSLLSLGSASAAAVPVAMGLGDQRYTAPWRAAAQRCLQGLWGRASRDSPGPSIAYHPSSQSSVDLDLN
Test: functional cAMP assay in CHO-dhfr(minus) cells expressing human GPBAR1 receptors
Format: cell-based
Details: CHO-dhfr(minus) cells expressing human GPBAR1, 30 min at 30° C.
Description: The cDNA of the human GPBAR1 receptor (Genbank: NM_170699 with the exception of a silent C:G mutation at position 339 from the start codon) was amplified by polymerase chain reaction (PCR) from human cDNA and inserted into pCineo (Promega) by standard methods (Current Protocols in Molecular Biology, Wiley Press, ed. Ausubel et al.). The final clone was verified by DNA sequence analysis. The plasmid was transfected into CHO cells deficient in dihydrofolate reductase activity (CHO-dhfr-) using Lipofectamine plus (Invitrogen). Clones were isolated in limited dilution conditions and identified by activities in the cAMP assay using lithocholic acid as agonist. A clonal cell line displaying the greatest activity in cAMP increases was selected and identified as giving consistently good responses for up to at least 20 passages.
CHO-dhfr(minus) cells expressing human GPBAR1 receptors are seeded 17-24 hours prior to the experiment 50.000 cells per well in a black 96 well plate with flat clear bottom (Corning Costar #3904) in DMEM (Invitrogen No. 31331), 1×HT supplement, with 10% fetal calf serum and incubated at 5% CO2 and 37° C. in a humidified incubator. The growth medium was exchanged with Krebs Ringer Bicarbonate buffer with 1 mM IBMX and incubated at 30° C. for 30 min. Compounds were added to a final assay volume of 100 μl and incubated for 30 min at 30° C. The assay was stopped by the addition of 50 μl lysis reagent (Tris, NaCl, 1.5% Triton X100, 2.5% NP40, 10% NaN3) and 50 μl detection solutions (20 μM mAb Alexa700-cAMP 1:1, and 48 μM Ruthenium-2-AHA-cAMP) and shaken for 2 h at room temperature. The time-resolved energy transfer is measured by a TRF reader (Evotec Technologies GmbH, Hamburg Germany), equipped with a ND:YAG laser as excitation source. The plate is measured twice with the excitation at 355 nm and at the emission with a delay of 100 ns and a gate of 100 ns, total exposure time 10 s at 730 (bandwidth 30 nm) or 645 nm (bandwidth 75 nm), respectively. The measured signal at 730 nm has to be corrected for the ruthenium background, the direct excitation of Alexa and the buffer control. The FRET signal is calculated as follows: FRET=T730-Alexa730-P(T645-B645) with P=Ru730-B730/Ru645-B645, where T730 is the test well measured at 730 nM, T645 is the test well measured at 645 nm, B730 and B645 are the buffer controls at 730 nm and 645 nm, respectively. cAMP content is determined from the function of a standard curve spanning from 10 μM to 0.13 nM cAMP.
EC50 values were determined using Activity Base analysis (ID Business Solution, Limited). The EC50 values for a wide range of bile acids generated from this assay were in agreement with the values published in the scientific literature. Specificity for GPBAR1 was tested in non-transfected CHO cells in the same assay as above.

`Cc1ccccc1[C@H](C/C(=N\O)C1CCC(=O)N(C)C1)c1ccc(S(C)(=O)=O)cc1` (mixture of isomers) [Example 1, 5-((R,E)-1-(Hydroxyimino)-3-(4-(methylsulfonyl)phenyl)-3-o-tolylpropyl)-1-methylpiperidin-2-one] was tested. Which EC50 did it give?
The EC50 was 118 nM.

With `Cc1ccccc1[C@H](C/C(=N\O)C1CCC(=O)N(C)C1)c1ccc(S(C)(=O)=O)cc1` (single isomer, unassigned) [Example 3] as the compound, how does the EC50 read?
The EC50 was 145 nM.

For `Cc1ccccc1[C@H](C/C(=N\O)C1CCC(=O)N(C)C1)c1ccc(S(C)(=O)=O)cc1` (single isomer, unassigned) [Example 4], which EC50 is on record?
The EC50 was 29 nM.

For `Cc1ccccc1[C@H](C/C(=N/O)C1CCC(=O)N(C)C1)c1ccc(S(C)(=O)=O)cc1` (stereo partly drawn) [Example 2, 5-((R,Z)-1-(hydroxyimino)-3-(4-(methylsulfonyl)phenyl)-3-o-tolylpropyl)-1-methylpiperidin-2-one], which EC50 is on record?
Its EC50 is 8670 nM.

With `Cc1ccccc1[C@H](C/C(=N\O)C1CCC(=O)N(C)C1)c1ccc(N2CCC(C(=O)O)CC2)cc1` (stereo partly drawn) [Example 5, Sodium 1-(4-((1R,E)-3-(hydroxyimino)-3-(1-methyl-6-oxopiperidin-3-yl)-1-o-tolylpropyl)phenyl)piperidine-4-carboxylate] as the compound, how does the EC50 read?
The EC50 was 42 nM.

For `Cc1ccccc1[C@H](C/C(=N\O)C1CCC(=O)N(C)C1)c1ccccc1` (stereo partly drawn) [Example 6, 5-((R,E)-1-(Hydroxyimino)-3-phenyl-3-o-tolylpropyl)-1-methylpiperidin-2-one], which EC50 is on record?
The EC50 was 51 nM.

How did the EC50 turn out when `Cc1ccccc1[C@H](C/C(=N\O)C1CCC(=O)N(C)C1)c1ccc(-c2ccc(C(=O)O)cc2)cc1` (stereo partly drawn) [Example 7, 4′-((1R,E)-3-(Hydroxyimino)-3-(1-methyl-6-oxopiperidin-3-yl)-1-o-tolylpropyl)biphenyl-4-carboxylic acid] was run?
The EC50 was 558 nM.

Which EC50 does the source give for `CC(=O)N1CCC(/C(CC(c2ccc(Br)cc2)c2ccccc2C)=N/O)CC1` (stereo not drawn) [Example 8, (E)-1-(4-(3-(4-Bromophenyl)-1-(hydroxyimino)-3-o-tolylpropyl)piperidin-1-yl)ethanone] here?
Its EC50 is 8270 nM.

`Cc1ccccc1C(C/C(=N\O)C1CCOCC1)c1ccc(Br)cc1` (stereo not drawn) [Example 9, (E)-3-(4-Bromophenyl)-1-(tetrahydro-2H-pyran-4-yl)-3-o-tolylpropan-1-one oxime] was tested. Which EC50 did it give?
The EC50 was 118 nM.

Which EC50 does the source give for `CS(=O)(=O)c1ccc(C(C/C(=N\O)C2CCOCC2)c2ccccc2)cc1` (stereo not drawn) [Example 10, (E)-3-(4-(Methylsulfonyl)phenyl)-3-phenyl-1-(tetrahydro-2H-pyran-4-yl)propan-1-one oxime] here?
The EC50 was 799 nM.

`Cc1ccccc1C(C/C(=N\O)C1CCSCC1)c1ccc(Br)cc1` (stereo not drawn) [Example 11, (E)-3-(4-Bromophenyl)-1-(tetrahydro-2H-thiopyran-4-yl)-3-o-tolylpropan-1-one oxime] was tested. Which EC50 did it give?
Its EC50 is 9950 nM.

For `Cc1ccccc1C(C/C(=N\O)C1CCS(=O)(=O)CC1)c1ccc(Br)cc1` (stereo not drawn) [Example 12, 3-(4-Bromo-phenyl)-1-(1,1-dioxo-hexahydro-thiopyran-4-yl)-3-o-tolyl-propan-1-one oxime], which EC50 is on record?
The EC50 was 9730 nM.

With `Cc1ccccc1C(C/C(=N\O)[C@H]1CC[C@H](O)CC1)c1ccc(Br)cc1` (stereo partly drawn) [Example 13, (E)-3-(4-Bromophenyl)-1-(trans-4-hydroxycyclohexyl)-3-o-tolylpropan-1-one oxime] as the compound, how does the EC50 read?
Its EC50 is 2000 nM.

`Cc1ccccc1C(C/C(=N\O)C1CCC(=O)CC1)c1ccc(Br)cc1` (stereo not drawn) [Example 14, (E)-4-(3-(4-bromophenyl)-1-(hydroxyimino)-3-o-tolylpropyl)cyclohexanone] was tested. Which EC50 did it give?
Its EC50 is 601 nM.

For `Cc1ccccc1C(C/C(=N\O)C1CCC(O)CC1)c1ccc(S(C)(=O)=O)cc1` (stereo not drawn) [Example 15, (E)-1-(4-Hydroxycyclohexyl)-3-(4-(methylsulfonyl)phenyl)-3-o-tolylpropan-1-one oxime], which EC50 is on record?
The EC50 was 680 nM.

With `Cc1ccccc1C(C/C(=N/O)C1CCC(O)CC1)c1ccc(S(C)(=O)=O)cc1` (stereo not drawn) [Example 16, (Z)-1-(4-hydroxycyclohexyl)-3-(4-(methylsulfonyl)phenyl)-3-o-tolylpropan-1-one oxime] as the compound, how does the EC50 read?
The EC50 was 7720 nM.

Which EC50 does the source give for `Cc1ccccc1C(C/C(=N\O)[C@H]1CC[C@](C)(O)CC1)c1ccc(S(C)(=O)=O)cc1` (stereo partly drawn) [Example 17, (E)-1-((1r,4r)-4-Hydroxy-4-methylcyclohexyl)-3-(4-(methylsulfonyl)phenyl)-3-o-tolylpropan-1-one oxime] here?
The EC50 was 9810 nM.

For `Cc1ccccc1C(C/C(=N\O)C1CC(O)C1)c1ccc(Br)cc1` (stereo not drawn) [Example 18, (E)-3-(4-Bromophenyl)-1-(3-hydroxycyclobutyl)-3-o-tolylpropan-1-one oxime], which EC50 is on record?
The EC50 was 3850 nM.
